Values after ≈ are worked out from the molar mass of the structure shown.
What was measured:
Format in all cases: functional, organism-based
[1] = tested on: Plasmodium falciparum; test: In vitro antimalarial activity against Plasmodium falciparum D6 Sierra Leone relative to artemisinin
[2] = tested on: Plasmodium falciparum; test: In vitro antimalarial activity against Plasmodium falciparum W-2 (Indochina)
[3] = tested on: Plasmodium falciparum; test: In vitro antimalarial activity relative to artemisinin against Plasmodium falciparum W-2 (Indochina)
[4] = tested on: Plasmodium falciparum; test: In vitro antimalarial activity against Plasmodium falciparum D6 Sierra Leone
[5] = tested on: Plasmodium falciparum; test: In vitro antimalarial activity relative to artemisinin against Plasmodium falciparum W2 (Indochina); Not active <= 5000 ng/mL
[6] = tested on: Plasmodium falciparum; test: In vitro antimalarial activity against Plasmodium falciparum W-2 (Indochina) relative to artemisinin; Not active at <5000 ng/mL
[7] = tested on: Plasmodium falciparum; test: In vitro antimalarial activity against Plasmodium falciparum D-6 Sierra Leone relative to artemisinin; Not active <= 5000 ng/mL
[8] = tested on: Plasmodium falciparum; test: In vitro antimalarial activity against Plasmodium falciparum D6 (Sierra Leone); Not active <= 5000 ng/mL

Compound	IC50 ratio [1]	IC50 [2] [ng/mL]	IC50 ratio [3]	IC50 [4] [ng/mL]	IC50 [5]	IC50 [6]	IC50 [7]	IC50 [8]	IC50 ([3]; Plasmodium falciparum) [ng/mL]
C=C1C(=O)O[C@@H]2O[C@@]3(C)CC[C@H]4[C@H](C)CC[C@@H]1[C@@]24OO3 [ARTEMISITENE]	2.8	7.44 (≈ 0.0265 µM)	7.8	5.3 (≈ 0.0189 µM)	–	–	–	–	–
C[C@@H]1CCC2[C@]34OO[C@](C)(CCC13)O[C@H]4OC(=O)[C@]21CO1 (stereo partly drawn)	–	–	–	–	Not Active	Not Active	Not Active	Not Active	–
C[C@@H]1CCC2C(=O)C(=O)O[C@@H]3O[C@@]4(C)CCC1[C@@]23OO4 (stereo partly drawn)	169	278 (≈ 0.985 µM)	290	319 (≈ 1.13 µM)	–	–	–	–	–
C[C@@H]1CCC2[C@]34OO[C@](C)(CCC13)O[C@H]4OC(=O)[C@@]21CO1 (stereo partly drawn)	48	124 (≈ 0.418 µM)	123	96 (≈ 0.324 µM)	–	–	–	–	–
CSC1=NN=C2C3CC[C@@H](C)C4CC[C@@]5(C)OO[C@@]34[C@H](OC2(O)S1)O5 (stereo partly drawn)	305	564 (≈ 1.46 µM)	429	789 (≈ 2.04 µM)	–	–	–	–	–
C[C@@H]1CCC2[C@]34OO[C@](C)(CCC13)O[C@H]4O[C@H](OO)[C@@]21CO1 (stereo partly drawn)	1.3	4.5 (≈ 0.0143 µM)	4.2	2.8 (≈ 0.00891 µM)	–	–	–	–	–
C[C@@H]1CCC2[C@]34OO[C@](C)(CCC13)O[C@H]4OC(=O)[C@@]21CCN=N1 (stereo partly drawn)	280	447 (≈ 1.39 µM)	408	604 (≈ 1.87 µM)	–	–	–	–	–
C[C@@H]1CCC2[C@H](O)[C@H](O)O[C@@H]3O[C@@]4(C)CCC1[C@@]23OO4 (stereo partly drawn)	3.8	7.4 (≈ 0.0258 µM)	7.6	7.3 (≈ 0.0255 µM)	–	–	–	–	–
C=C1C2CC[C@@H](C)C3CC[C@@]4(C)OO[C@@]23[C@H](O[C@@H]1O)O4 (stereo partly drawn)	63	232 (≈ 0.822 µM)	242	119 (≈ 0.421 µM)	–	–	–	–	–
C[C@@H]1CCC2[C@]34OO[C@](C)(CCC13)O[C@H]4O[C@H](OO)[C@]21CO1 (stereo partly drawn)	0.9	4 (≈ 0.0127 µM)	3.7	2 (≈ 0.00636 µM)	–	–	–	–	–
C[C@@H]1CC[C@H]2[C@@H](C)C(=O)O[C@@H]3O[C@@]4(C)CC[C@@H]1[C@]32OO4 [ARTEMISININ]	1	0.95 (≈ 0.00336 µM)	–	1.89 (≈ 0.00669 µM)	–	–	–	–	1 (≈ 0.00354 µM)
C[C@@H]1CCC2[C@]34OO[C@](C)(CCC13)O[C@H]4OC(=O)[C@@]2(Br)CBr (stereo partly drawn)	26	67 (≈ 0.152 µM)	44	77 (≈ 0.175 µM)	–	–	–	–	–
C=C1C2CC[C@@H](C)C3CC[C@@]4(C)OO[C@@]23[C@H](O[C@@H]1OO)O4 (stereo partly drawn)	2	8.12 (≈ 0.0272 µM)	8	4.08 (≈ 0.0137 µM)	–	–	–	–	–
C[C@@H]1CCC2[C@@]3(CO3)C(O)O[C@@H]3O[C@@]4(C)CCC1[C@@]23OO4 (stereo partly drawn)	0.9	3.4 (≈ 0.0114 µM)	3.4	1.8 (≈ 0.00603 µM)	–	–	–	–	–
C/C=C1\C(=O)O[C@@H]2O[C@@]3(C)CCC4[C@H](C)CC[C@@H]1[C@]42OO3 (stereo partly drawn)	1.1	2.3 (≈ 0.00781 µM)	2.3	2.1 (≈ 0.00713 µM)	–	–	–	–	–
C[C@@H]1CCC2C3(CC3)C(=O)O[C@@H]3O[C@@]4(C)CCC1[C@@]23OO4 (stereo partly drawn)	5.2	8.6 (≈ 0.0292 µM)	8.6	10 (≈ 0.034 µM)	–	–	–	–	–
C[C@@H]1CCC2[C@]34OO[C@](C)(CCC13)O[C@H]4OC(=O)[C@@]2(O)CO (stereo partly drawn)	–	–	–	–	Not Active	Not Active	Not Active	Not Active	–

Reference: ChEMBL document CHEMBL1126954, “Synthesis and antimalarial activity of some 9-substituted artemisinin derivatives” (J Med Chem, 1993)
